Source: ChEMBL document CHEMBL1909046, “DrugMatrix in vitro pharmacology data”

Assays:
[1] = biological target: T1, Receptor-type tyrosine-protein phosphatase C (Homo sapiens, UniProt P08575); design: species or system Escherichia coli;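 note: inhibition of CD45 enzyme activity measured using DiFMUP as substrate; in other assays of this panel Not Active means under 50% inhibition at 10 µM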
T1 sequence (P08575 whole entry): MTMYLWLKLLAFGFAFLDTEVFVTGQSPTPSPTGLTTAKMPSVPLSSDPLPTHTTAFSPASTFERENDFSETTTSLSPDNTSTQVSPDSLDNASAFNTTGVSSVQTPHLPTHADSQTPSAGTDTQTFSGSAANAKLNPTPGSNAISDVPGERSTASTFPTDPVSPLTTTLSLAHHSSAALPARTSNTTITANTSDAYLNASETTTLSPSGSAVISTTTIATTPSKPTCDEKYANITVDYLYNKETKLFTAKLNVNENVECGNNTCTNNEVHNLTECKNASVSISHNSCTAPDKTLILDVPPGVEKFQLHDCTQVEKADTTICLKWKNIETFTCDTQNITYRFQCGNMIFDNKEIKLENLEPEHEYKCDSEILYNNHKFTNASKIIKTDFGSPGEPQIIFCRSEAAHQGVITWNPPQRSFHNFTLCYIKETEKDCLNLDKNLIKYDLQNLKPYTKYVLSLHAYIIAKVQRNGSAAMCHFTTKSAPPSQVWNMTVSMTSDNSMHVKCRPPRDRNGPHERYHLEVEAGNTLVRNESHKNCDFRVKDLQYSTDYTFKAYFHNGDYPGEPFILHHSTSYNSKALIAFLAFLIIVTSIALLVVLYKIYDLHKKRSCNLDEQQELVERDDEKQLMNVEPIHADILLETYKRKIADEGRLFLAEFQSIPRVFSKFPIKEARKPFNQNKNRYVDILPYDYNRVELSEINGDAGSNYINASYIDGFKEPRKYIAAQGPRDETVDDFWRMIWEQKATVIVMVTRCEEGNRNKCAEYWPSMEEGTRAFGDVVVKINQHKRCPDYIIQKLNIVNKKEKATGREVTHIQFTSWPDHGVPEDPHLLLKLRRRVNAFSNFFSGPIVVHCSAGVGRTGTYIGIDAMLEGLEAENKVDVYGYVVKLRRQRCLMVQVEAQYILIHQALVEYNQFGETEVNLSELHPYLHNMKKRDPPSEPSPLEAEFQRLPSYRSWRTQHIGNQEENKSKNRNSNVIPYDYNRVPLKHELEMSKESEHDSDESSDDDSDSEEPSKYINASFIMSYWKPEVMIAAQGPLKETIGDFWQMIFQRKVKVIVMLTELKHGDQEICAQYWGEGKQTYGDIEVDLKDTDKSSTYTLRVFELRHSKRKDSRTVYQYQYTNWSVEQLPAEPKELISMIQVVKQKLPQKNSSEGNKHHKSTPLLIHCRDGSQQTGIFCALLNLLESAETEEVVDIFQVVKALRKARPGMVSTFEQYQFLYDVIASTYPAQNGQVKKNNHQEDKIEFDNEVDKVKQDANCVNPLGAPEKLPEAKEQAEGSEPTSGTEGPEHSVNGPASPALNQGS

[2] = biological target: Vascular endothelial growth factor receptor 1 (Homo sapiens, UniProt P17948); assay: biochemical; assay type: cell-based, HUVEC; conditions: huvec; note: in other assays of this panel Not Active means under 50% inhibition at 10 µM
Vascular endothelial growth factor receptor 1, sequence (P17948 whole entry): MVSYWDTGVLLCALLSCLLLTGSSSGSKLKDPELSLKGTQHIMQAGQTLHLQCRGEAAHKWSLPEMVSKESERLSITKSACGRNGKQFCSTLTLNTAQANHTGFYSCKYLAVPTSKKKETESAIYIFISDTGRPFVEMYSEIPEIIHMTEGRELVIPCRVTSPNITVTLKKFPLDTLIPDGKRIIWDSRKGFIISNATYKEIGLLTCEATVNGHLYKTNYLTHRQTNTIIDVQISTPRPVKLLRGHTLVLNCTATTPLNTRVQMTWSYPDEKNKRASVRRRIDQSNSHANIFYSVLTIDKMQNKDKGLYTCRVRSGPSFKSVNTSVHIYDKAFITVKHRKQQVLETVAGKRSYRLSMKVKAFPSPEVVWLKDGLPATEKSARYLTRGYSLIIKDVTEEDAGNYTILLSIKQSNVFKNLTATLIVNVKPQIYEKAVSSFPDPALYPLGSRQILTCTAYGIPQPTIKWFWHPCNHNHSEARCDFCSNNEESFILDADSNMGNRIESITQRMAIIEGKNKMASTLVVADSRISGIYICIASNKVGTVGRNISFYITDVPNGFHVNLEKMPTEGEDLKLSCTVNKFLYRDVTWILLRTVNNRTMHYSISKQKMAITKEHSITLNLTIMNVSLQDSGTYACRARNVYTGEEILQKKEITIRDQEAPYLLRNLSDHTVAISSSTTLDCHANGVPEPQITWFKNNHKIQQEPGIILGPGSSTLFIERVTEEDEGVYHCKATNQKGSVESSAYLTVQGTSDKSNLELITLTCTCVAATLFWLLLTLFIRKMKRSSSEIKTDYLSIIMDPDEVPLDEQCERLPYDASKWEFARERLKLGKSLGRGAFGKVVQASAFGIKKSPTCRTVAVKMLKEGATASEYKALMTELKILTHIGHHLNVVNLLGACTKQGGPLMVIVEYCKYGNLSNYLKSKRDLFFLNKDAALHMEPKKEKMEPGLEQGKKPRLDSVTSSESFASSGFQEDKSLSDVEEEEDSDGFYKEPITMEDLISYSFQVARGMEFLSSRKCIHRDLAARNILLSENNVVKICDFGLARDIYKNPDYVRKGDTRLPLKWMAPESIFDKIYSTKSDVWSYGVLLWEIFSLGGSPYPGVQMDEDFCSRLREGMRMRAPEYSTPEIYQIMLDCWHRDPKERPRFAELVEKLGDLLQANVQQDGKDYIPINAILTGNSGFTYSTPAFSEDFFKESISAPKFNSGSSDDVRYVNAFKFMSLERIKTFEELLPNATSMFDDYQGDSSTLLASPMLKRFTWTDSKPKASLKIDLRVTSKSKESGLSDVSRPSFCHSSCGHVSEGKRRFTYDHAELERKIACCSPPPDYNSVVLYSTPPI

[3] = biological target: T2, Glucocorticoid receptor (Homo sapiens, UniProt P04150); conditions: hela s3; note: in other assays of this panel Not Active means under 50% inhibition at 10 µM
T2 sequence (P04150 whole entry): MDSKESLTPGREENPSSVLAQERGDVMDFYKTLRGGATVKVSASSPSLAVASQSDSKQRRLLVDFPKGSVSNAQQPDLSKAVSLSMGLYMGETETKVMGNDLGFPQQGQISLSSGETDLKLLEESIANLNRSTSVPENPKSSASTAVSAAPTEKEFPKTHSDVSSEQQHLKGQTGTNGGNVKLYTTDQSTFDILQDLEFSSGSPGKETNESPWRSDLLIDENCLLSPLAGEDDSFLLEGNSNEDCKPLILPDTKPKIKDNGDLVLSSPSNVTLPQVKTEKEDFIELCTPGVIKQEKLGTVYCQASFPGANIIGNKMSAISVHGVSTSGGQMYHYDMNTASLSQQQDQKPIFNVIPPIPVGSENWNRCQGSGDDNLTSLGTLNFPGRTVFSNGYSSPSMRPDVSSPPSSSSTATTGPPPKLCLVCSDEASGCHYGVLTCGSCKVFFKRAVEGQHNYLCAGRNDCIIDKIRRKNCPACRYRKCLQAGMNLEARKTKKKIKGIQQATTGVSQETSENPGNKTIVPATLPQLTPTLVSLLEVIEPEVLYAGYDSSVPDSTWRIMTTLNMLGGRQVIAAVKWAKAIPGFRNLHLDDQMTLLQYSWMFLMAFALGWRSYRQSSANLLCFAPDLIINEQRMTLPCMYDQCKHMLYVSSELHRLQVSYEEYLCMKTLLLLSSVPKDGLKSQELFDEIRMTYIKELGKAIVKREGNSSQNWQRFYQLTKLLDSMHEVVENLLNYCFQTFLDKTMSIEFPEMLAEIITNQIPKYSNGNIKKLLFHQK

[4] = biological target: Mitogen-activated protein kinase 3 (Homo sapiens, UniProt P27361); assay: DRUGMATRIX: Protein Serine/Threonine Kinase, ERK1 enzyme inhibition (substrate: Myelin Basic Protein); design: species or system Escherichia coli; conditions: Not Active = under 50% inhibition at 10 µM
Mitogen-activated protein kinase 3, sequence (P27361 whole entry): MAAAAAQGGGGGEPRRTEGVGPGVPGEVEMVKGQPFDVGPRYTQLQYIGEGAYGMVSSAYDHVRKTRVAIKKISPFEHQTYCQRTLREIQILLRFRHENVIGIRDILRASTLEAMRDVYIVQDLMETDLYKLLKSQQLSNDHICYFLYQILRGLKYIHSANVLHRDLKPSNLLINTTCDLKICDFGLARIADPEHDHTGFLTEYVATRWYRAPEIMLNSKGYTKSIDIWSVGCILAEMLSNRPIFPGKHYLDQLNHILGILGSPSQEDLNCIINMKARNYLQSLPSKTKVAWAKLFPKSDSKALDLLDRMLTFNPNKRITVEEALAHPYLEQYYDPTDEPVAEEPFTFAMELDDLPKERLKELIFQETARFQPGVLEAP

[5] = biological target: Substance-P receptor (Homo sapiens, UniProt P25103); assay type: cell membranes, Membrane; conditions: cho; note: in other assays of this panel Not Active means under 50% inhibition at 10 µM
Substance-P receptor, sequence (P25103 whole entry): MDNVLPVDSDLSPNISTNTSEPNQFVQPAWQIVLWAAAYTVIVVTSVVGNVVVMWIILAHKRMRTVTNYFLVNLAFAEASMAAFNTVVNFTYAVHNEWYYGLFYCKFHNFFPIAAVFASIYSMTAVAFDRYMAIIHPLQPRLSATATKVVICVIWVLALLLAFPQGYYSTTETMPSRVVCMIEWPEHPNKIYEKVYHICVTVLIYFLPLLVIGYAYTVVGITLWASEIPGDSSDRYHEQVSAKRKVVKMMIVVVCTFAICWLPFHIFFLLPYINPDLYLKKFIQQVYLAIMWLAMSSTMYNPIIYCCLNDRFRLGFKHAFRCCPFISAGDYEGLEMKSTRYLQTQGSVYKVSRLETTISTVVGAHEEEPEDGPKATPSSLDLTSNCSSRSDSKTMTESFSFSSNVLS

[6] = DRUGMATRIX: beta-Lactamase enzyme inhibition (substrate: Nitrocefin); design: species or system Bacillus cereus; conditions: Not Active = under 50% inhibition at 10 µM
[7] = biological target: Melanocortin receptor 5 (Homo sapiens, UniProt P33032); assay type: cell membranes, HEK293, Membrane; conditions: hek293; note: in other assays of this panel Not Active means under 50% inhibition at 10 µM
Melanocortin receptor 5, sequence (P33032 whole entry): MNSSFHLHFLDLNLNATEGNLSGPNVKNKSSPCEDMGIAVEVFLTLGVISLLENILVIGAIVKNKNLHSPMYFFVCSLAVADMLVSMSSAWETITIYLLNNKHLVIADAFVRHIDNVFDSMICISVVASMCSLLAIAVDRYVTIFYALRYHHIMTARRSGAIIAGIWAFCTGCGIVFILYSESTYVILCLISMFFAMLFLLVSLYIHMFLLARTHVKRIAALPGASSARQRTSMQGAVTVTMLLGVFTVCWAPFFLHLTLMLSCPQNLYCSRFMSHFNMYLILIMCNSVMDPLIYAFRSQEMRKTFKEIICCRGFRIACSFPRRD

[8] = biological target: T3, Cytochrome P450 2A6 (Homo sapiens, UniProt P11509); conditions: bti-tn-5b1-4; note: in other assays of this panel Not Active means under 50% inhibition at 10 µM
T3 sequence (P11509 whole entry): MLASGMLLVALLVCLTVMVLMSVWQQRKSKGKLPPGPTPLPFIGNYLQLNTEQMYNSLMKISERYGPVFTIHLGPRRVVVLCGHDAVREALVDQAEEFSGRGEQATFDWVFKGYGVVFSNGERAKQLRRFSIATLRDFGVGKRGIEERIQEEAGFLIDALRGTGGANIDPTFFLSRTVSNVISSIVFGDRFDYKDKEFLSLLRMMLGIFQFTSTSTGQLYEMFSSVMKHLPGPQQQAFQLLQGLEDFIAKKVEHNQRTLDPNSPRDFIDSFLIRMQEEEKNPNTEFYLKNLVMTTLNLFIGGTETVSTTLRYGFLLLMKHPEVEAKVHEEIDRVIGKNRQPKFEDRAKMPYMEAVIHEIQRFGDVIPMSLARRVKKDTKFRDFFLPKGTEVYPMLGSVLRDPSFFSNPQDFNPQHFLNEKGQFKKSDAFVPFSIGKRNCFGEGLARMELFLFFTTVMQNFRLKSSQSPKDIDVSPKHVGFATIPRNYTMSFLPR

N[C@@H](Cc1ccc(F)cc1)C(=O)O
Not Active: IC50 [1] | IC50 [2] | IC50 [3] | IC50 [4] | IC50 [5] | IC50 [6] | Ki [6] | IC50 [7]

C[C@@H]1CC[C@H]2[C@@H](C)C(=O)O[C@@H]3O[C@@]4(C)CC[C@@H]1[C@]32OO4 [ARTEMISININ]
Not Active: IC50 [1] | IC50 [2] | IC50 [3] | IC50 [4] | IC50 [5] | IC50 [6] | Ki [6] | IC50 [7]

Cc1c(N(C)CS(=O)(=O)[O-])c(=O)n(-c2ccccc2)n1C.[Na+] [DIPYRONE SODIUM]
Not Active: IC50 [1] | IC50 [2] | IC50 [3] | IC50 [5] | IC50 [8] | Ki [8] | IC50 [6] | Ki [6] | IC50 [7]

Cc1cn[nH]c1 [FOMEPIZOLE]
Not Active: IC50 [1] | IC50 [2] | IC50 [3] | IC50 [4] | IC50 [5] | IC50 [6] | Ki [6] | IC50 [7]

Cc1cnc(C(=O)NCCc2ccc(S(=O)(=O)NC(=O)NC3CCCCC3)cc2)cn1 [GLIPIZIDE]
Not Active: IC50 [2] | IC50 [3] | IC50 [5] | IC50 [6] | Ki [6] | IC50 [7]

N=C(N)N/N=C/c1c(Cl)cccc1Cl [GUANABENZ]
Not Active: IC50 [1] | IC50 [2] | IC50 [4] | IC50 [5] | IC50 [8] | Ki [8] | IC50 [6] | Ki [6] | IC50 [7]

C[C@]12CCC(=O)C=C1CC[C@@H]1[C@@H]2[C@@H](O)C[C@@]2(C)[C@H]1CC[C@]2(O)C(=O)CO [HYDROCORTISONE]
Not Active: IC50 [1] | IC50 [2] | IC50 [4] | IC50 [5] | IC50 [8] | Ki [8] | IC50 [6] | Ki [6] | IC50 [7]

CC(C(=O)O)c1ccc(CC2CCCC2=O)cc1 (stereo not given) [LOXOPROFEN]
Not Active: IC50 [1] | IC50 [2] | IC50 [4] | IC50 [5] | IC50 [8] | Ki [8] | IC50 [6] | Ki [6] | IC50 [7]

CC(=O)O[C@]1(C(C)=O)CC[C@H]2[C@@H]3C=C(C)C4=CC(=O)CC[C@]4(C)[C@H]3CC[C@@]21C [MEGESTROL ACETATE]
Not Active: IC50 [1] | IC50 [2] | IC50 [4] | IC50 [5] | IC50 [8] | Ki [8] | IC50 [6] | Ki [6] | IC50 [7]

CN(Cc1cnc2nc(N)nc(N)c2n1)c1ccc(C(=O)N[C@@H](CCC(=O)O)C(=O)O)cc1 [METHOTREXATE]
Not Active: IC50 [1] | IC50 [2] | IC50 [4] | IC50 [5] | IC50 [8] | Ki [8] | IC50 [6] | Ki [6] | IC50 [7]

COC(=O)c1ccccc1O [METHYL SALICYLATE]
Not Active: IC50 [1] | IC50 [2] | IC50 [4] | IC50 [5] | IC50 [8] | Ki [8] | IC50 [6] | Ki [6] | IC50 [7]

O=C(O)c1cccnc1 [NIACIN]
Not Active: IC50 [1] | IC50 [2] | IC50 [4] | IC50 [5] | IC50 [8] | Ki [8] | IC50 [6] | Ki [6] | IC50 [7]

CC(C)(CO)C(O)C(=O)NCCCO (stereo not given) [PANTHENOL]
Not Active: IC50 [1] | IC50 [2] | IC50 [4] | IC50 [5] | IC50 [8] | Ki [8] | IC50 [6] | Ki [6] | IC50 [7]

COc1ccc(Cc2nccc3cc(OC)c(OC)cc23)cc1OC [PAPAVERINE]
Not Active: IC50 [1] | IC50 [2] | IC50 [4] | IC50 [5] | IC50 [8] | Ki [8] | IC50 [6] | Ki [6] | IC50 [7]
